The test system of series [1] is pAKT. Put plainly: pAKT/tAKT in normal brain tissue. The format is in vivo, female CD-1 mice. Here is the method: The effect of compound IIIat on pAKT in normal brain tissue, expressed as the ratio of phosphorylated AKT (pAKT) to total AKT (tAKT) was evaluated. […] In the evaluation, female CD-1 mice were administered a single PO dose of the indicated compound. Brains and plasma were collected at the indicated time post-dose, from 3 animals at each time point. Individual brains were split in half for PD analysis and compound concentration measurement. The samples were stored at −70° C. and analyzed for total concentration. For PD analysis, cell extraction buffer (Invitrogen, Camarillo, Calif.) containing 10 mM Tris pH 7.4, 100 mM NaCl, 1 mM EDTA, 1 mM EGTA, 1 mM NaF, 20 mM Na4P2O7, 2 mM Na3VO4, 1% Triton X-100, 10% glycerol, 0.1% SDS, and 0.5% deoxycholate was supplemented with phosphatase, protease inhibitors (Sigma, St. Louis, Mo.) and 1 mM PMSF and added to frozen brain biopsies. […] Protein concentration was determined using BCA protein assay (Pierce, Rockford, Ill.). […] Licor Odyssey Infrared detection system (Licor, Lincoln, Nebr.) was used to assess and quantify protein expression. PI3K pathway markers were evaluated by immunoblotting using antibodies against pAkt^ser473 and total Akt (Invitrogen, Camarillo, Calif. and Cell Signaling, Danvers, Mass.). Inhibition of pAkt (%) was calculated by comparing pAkt signal with that measured in untreated mice.

Another series deals with PKC_eta (Homo sapiens, UniProt P24723). Put plainly: biochemical. Particulars: read-out: % inhib.
Sequence of PKC_eta (P24723 whole entry): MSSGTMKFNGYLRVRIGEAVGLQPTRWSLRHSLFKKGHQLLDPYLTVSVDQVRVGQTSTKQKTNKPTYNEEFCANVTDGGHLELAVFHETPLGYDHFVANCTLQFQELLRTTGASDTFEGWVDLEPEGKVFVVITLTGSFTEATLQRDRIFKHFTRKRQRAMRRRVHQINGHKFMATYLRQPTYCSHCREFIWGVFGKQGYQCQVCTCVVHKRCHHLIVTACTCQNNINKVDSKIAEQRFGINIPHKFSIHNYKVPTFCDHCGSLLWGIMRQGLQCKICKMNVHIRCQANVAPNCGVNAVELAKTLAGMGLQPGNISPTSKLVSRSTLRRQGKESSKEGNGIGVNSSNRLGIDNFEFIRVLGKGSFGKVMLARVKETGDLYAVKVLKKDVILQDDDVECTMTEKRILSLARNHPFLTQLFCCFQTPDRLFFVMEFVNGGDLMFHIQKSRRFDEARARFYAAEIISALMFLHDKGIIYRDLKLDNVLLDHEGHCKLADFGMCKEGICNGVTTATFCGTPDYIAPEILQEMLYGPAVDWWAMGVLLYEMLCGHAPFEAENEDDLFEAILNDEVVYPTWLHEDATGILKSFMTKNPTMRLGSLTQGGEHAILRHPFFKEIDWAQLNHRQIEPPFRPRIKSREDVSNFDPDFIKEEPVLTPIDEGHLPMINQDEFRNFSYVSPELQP
The target in another series is CaMKII_beta (Homo sapiens, UniProt Q13554). Put plainly: biochemical. Particulars: read-out: % inhib.
Sequence of CaMKII_beta (Q13554 whole entry): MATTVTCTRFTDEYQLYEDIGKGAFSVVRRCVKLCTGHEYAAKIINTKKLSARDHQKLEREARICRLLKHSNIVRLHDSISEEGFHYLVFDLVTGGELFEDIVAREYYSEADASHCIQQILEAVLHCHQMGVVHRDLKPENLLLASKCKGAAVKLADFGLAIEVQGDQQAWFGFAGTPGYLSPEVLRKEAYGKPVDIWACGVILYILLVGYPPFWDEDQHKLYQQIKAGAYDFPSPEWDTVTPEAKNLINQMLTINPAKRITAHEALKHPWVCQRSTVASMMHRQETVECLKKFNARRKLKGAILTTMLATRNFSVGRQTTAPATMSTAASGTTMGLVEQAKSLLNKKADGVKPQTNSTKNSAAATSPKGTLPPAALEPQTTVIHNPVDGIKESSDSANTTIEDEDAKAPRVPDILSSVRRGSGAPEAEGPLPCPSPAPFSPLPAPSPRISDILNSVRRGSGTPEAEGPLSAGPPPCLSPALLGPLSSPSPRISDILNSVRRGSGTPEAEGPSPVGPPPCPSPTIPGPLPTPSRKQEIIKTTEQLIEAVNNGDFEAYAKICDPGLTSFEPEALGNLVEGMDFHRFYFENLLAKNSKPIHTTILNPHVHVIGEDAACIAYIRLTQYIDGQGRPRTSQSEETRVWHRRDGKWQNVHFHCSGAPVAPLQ
In a further series the target is CSK (Homo sapiens, UniProt P41240). Briefly: biochemical. Particulars: read-out: % inhib.
The target in the next series is Axl (Homo sapiens, UniProt P30530). Put plainly: biochemical. The settings on record: read-out: % inhib.
Another series has as its target CLK1 (Homo sapiens, UniProt P49759). Briefly: biochemical. Particulars: read-out: % inhib.
A short description of series [2]: Plasma protein binding (PPB %). Format: in vitro ADME, cynomolgus monkeys. The settings on record: cynomolgus monkey. Here is the method: (§1) The hepatocyte stability of compound IIIat was evaluated across preclinical species. Certain in vivo pharmacokinetic parameters were also evaluated. […] Male Sprague-Dawley rats, female CD-1 mice, male cynomolgus monkeys and beagle dogs were dosed intravenously with 1 mg/kg of compound IIIat prepared in 60% PEG400/10% Ethanol. Compound IIIat was administered orally (PO) at the indicated dose in 0.5% methylcellulose with 0.2% Tween 80 (MCT).

Series [3] in a line: In vivo pharmacokinetics IV and PO. The arrangement: species or system female CD-1 mice. The settings on record: Mouse. Here is the method: as §1
The target of another series is CHK1 (Homo sapiens, UniProt O14757). Briefly: biochemical. Particulars: read-out: % inhib.
A further series concerns the target Abl (Homo sapiens, UniProt P00519). Put plainly: biochemical. Particulars: read-out: % inhib.
The target in the next series is ErbB4 (Homo sapiens, UniProt Q15303). Put plainly: biochemical. The settings on record: read-out: % inhib.
Sequence of ErbB4 (Q15303 26-1308): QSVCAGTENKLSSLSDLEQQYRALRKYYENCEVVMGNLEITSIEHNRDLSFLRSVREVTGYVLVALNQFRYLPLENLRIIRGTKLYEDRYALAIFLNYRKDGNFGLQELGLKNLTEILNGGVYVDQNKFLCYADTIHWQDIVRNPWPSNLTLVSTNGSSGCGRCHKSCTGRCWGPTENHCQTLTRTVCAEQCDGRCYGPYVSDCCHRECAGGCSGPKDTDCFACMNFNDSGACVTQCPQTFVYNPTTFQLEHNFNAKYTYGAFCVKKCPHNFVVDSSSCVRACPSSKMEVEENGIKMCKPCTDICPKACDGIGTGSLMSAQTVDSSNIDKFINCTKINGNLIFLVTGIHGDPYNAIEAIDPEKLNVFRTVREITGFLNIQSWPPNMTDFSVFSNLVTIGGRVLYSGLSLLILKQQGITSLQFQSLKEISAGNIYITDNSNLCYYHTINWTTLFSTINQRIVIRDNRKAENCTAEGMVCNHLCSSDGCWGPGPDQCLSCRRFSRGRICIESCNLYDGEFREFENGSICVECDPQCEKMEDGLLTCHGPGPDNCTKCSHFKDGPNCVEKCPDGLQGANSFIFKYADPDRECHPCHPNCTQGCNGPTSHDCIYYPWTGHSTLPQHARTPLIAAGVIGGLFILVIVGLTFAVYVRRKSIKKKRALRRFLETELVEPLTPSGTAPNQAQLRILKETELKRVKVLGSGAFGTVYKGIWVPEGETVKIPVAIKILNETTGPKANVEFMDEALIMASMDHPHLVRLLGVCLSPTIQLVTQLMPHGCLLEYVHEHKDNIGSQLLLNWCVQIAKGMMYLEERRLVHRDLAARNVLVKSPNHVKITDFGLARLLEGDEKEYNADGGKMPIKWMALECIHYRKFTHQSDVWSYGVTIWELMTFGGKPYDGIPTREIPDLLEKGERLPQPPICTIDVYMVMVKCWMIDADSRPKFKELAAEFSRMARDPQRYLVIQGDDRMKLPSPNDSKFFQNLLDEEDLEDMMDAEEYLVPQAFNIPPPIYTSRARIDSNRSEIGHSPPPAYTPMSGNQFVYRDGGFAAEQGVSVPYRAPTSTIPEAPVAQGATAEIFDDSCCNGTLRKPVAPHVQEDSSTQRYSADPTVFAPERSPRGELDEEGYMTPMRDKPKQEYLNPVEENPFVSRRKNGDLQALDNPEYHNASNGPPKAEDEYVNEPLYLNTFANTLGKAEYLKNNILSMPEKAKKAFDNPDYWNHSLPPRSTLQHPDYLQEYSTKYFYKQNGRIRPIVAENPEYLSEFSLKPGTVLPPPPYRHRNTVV
The target of another series is p70S6K (Homo sapiens, UniProt P23443). Put plainly: biochemical. The settings on record: read-out: % inhib.
Sequence of p70S6K (P23443 whole entry): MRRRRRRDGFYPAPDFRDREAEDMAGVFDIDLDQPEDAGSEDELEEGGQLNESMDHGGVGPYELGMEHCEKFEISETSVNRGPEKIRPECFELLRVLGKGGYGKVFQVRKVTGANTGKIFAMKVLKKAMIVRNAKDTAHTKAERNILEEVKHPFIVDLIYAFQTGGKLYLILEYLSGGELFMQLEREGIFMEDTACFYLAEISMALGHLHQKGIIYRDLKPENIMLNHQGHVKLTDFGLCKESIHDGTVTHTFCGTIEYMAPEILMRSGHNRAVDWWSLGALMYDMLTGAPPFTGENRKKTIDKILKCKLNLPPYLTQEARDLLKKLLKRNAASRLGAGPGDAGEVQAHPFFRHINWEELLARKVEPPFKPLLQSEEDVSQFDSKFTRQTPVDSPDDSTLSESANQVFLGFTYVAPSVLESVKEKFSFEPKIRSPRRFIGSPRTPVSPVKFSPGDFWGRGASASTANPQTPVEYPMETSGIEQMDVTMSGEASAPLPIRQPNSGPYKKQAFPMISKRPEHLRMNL
Another series deals with Fyn (Homo sapiens, UniProt P06241). Put plainly: biochemical. The settings on record: read-out: % inhib.
For series [4], the system named is pAKT. Put plainly: pAKT/total AKT in U87 MG/M xenograft tumors. The format is in vivo, mice. Particulars: 0.5, 3, 10, 18 mg/kg, 24 days continuous dosing, 1 hour and 4 hours post dose. As to the method:
The effect of compound IIIat on the pharmacodynamics (PD) marker pAKT in the U87 MG/M human glioblastoma xenograft model after 24 days of continuous dosing at dosage rates of 0.5 mg/kg, 3 mg/kg, 10 mg/kg and 18 mg/kg was evaluated. Tumors were excised from animals 1 hour and 4 hours after the last administered dose on day 24 and processed for analysis of pAKT and total AKT. The results are reported in FIG. 4 as a ratio of pAKT to total AKT wherein indicated values are the means for groups of 3 animals and error bars indicate ±standard error of the mean. Levels of pAKT^Ser473 and total AKT were measured by electrochemiluminescence using Meso Scale Discovery according to manufacturer's instructions (Gaithersburg, Md.).

In the next series the test system is GS2 intracranial tumors. Briefly: Efficacy in GS2 intracranial model. The format is in vivo, mice. Particulars: 15 mg/kg PO daily for 4 weeks, MRI, p<0.01. An excerpt:
These U87 and GS2 models are PTEN-deficient, with the GS2 cell line presenting a copy number loss at the PTEN locus (Gunther H S, et al.) with no detectable PTEN protein by western blot (Carlson […], Schroeder […]., “Establishment, maintenance and in vitro and in vivo applications of primary human glioblastoma multiforme (GBM) xenograft models for translational biology studies and drug discovery”, Curr Protoc Pharmacol. 2011; Chapter 14: Unit 14 16). The identity of the two cell lines was confirmed by STR profiling (DNA Diagnostics Center) using cells within 5 passages of those utilized for in vivo studies. […] The differences between treatment groups were evaluated using Student's t test in Prism (Prism 5, GraphPad). […] Body temperature was continuously monitored using a rectal probe and was maintained at 37° C. by a heated-air flow system regulated by in-house LabVIEW controller software. A T2-weighted fast spin echo, multi-slice (FSEMS) sequence was used to detect lesions by MRI. 12-20 axial 0.5-0.8 mm-thick slices were acquired with a 20×20 mm field of view (FOV), and 128×128 matrix, zero-filled to 256×256 mages. TR=3500-4000 ms, TE=9-10 ms, ETL=8, k-zero=4, NEX=8. Tumor volumes were calculated from the T2-weighted FSEMS images using an intensity threshold based region growing tool in MRVision software. […]

Another series addresses PI4Ka (Homo sapiens, UniProt P42356). Put plainly: biochemical. Particulars: read-out: % inhib.

Molecules are shown by their SMILES.

Sequence of Abl (P00519 whole entry, species assumed): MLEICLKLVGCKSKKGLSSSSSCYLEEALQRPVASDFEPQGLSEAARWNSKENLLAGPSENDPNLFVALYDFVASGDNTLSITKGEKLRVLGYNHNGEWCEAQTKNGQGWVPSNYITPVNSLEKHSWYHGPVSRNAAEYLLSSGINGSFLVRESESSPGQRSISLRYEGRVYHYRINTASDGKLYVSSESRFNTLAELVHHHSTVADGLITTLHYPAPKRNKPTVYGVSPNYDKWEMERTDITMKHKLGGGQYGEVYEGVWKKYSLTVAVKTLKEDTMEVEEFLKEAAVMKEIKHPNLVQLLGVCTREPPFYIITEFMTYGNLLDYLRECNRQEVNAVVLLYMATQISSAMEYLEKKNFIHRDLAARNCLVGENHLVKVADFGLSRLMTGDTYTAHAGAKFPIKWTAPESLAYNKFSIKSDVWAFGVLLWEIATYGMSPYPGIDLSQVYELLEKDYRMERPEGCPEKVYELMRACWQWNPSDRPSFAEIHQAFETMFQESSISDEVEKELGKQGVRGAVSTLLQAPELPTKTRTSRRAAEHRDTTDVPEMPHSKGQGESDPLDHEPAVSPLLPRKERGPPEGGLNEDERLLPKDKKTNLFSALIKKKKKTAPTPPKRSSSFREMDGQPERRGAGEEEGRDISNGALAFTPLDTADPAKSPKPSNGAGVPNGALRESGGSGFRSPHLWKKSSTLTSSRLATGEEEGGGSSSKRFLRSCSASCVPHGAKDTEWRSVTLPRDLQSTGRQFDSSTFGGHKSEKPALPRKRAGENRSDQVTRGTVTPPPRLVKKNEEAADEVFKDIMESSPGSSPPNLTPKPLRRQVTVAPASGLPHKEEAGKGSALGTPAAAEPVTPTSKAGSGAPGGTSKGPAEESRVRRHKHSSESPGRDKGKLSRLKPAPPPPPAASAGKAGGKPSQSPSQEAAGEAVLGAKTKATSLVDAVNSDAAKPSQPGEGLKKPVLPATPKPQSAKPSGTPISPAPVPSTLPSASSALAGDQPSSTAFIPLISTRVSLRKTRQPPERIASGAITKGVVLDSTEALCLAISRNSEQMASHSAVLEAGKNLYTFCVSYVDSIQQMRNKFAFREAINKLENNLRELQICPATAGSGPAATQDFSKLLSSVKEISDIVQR
Sequence of CLK1 (P49759 whole entry): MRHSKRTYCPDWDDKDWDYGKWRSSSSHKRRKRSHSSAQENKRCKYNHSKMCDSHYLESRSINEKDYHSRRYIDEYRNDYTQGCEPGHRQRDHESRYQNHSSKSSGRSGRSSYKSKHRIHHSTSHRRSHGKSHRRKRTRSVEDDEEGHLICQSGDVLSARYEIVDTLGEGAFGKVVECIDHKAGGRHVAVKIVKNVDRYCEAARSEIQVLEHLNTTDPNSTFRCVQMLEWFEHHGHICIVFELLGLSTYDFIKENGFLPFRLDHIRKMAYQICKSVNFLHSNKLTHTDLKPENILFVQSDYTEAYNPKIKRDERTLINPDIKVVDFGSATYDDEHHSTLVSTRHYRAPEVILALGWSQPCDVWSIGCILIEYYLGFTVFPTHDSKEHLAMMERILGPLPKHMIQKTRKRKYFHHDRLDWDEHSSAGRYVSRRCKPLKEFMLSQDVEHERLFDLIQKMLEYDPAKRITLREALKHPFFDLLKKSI

As usually defined, the fraction unbound is free concentration divided by total concentration. On to `CC1(C)OCCn2c1nc1c(N3CCOCC3)nc(-c3cnc(N)nc3)nc12` [GDC-0084, 5-(6,6-dimethyl-4-morpholino-8,9-dihydro-6H-[1,4]oxazino[3,4-e]purin-2-yl)pyrimidin-2-amine], for which the “pAKT in normal mouse brain tissue” value was “inhibited” with pAKT [1] (3 mg/kg or 10 mg/kg orally, 1 h post-dose) and “no longer resulted in inhibition of pAKT” in the series on pAKT [1] (3 mg/kg orally, 4 hours post-dose). The inhibition at 1 µM on PKC_eta is -9%; at CaMKII_beta it was 0.2%; on CSK it was 10%; at Axl, 6%; on CLK1, 4%; on CHK1 it was 0.6%. For the same molecule, the inhibition at 1 µM on Abl was found to be 2%; on ErbB4, 7%; at p70S6K it was 6%; on Fyn, 9%; on PI4Ka, 7%. Also, the fraction unbound in [2] was 0.25. Moreover, the “In vivo Cl” value in series [3] (IV 1 mg/kg) is given as 17 mL/min/kg. The AUC in [3] (PO 25 mg/kg in MCT) is given as 47 μm·h. This molecule displayed a Cmax in series [3] (PO 25 mg/kg in MCT) of 4.6 μm. In [3] (PO 25 mg/kg in MCT), this molecule yielded a F % of 75%. Also, the “inhibition of pAKT (pAKT/total AKT) in U87 tumors” value in the series with pAKT [4] is “Dose and concentration dependent inhibition of pAKT”. For the same molecule, in the series on GS2 intracranial tumors, the “GS2 tumors smaller than control group” value is reported as “≈ 40%”.
